Experimental data: PMC9851200, “Multiparameter phenotypic screening for endogenous TFEB and TFE3 translocation identifies novel chemical series modulating lysosome function” (Autophagy, 2022)
Read-outs that look alike come from different tables or passages of the source.

Tests used:
Type in all cases: binding
[1] = biological target: kinases (KINOMEscan panel) (Homo sapiens, UniProt P00533); conditions: kinase EGFR; NEW KINOMEscan
[2] = biological target: kinases (KINOMEscan panel) (Homo sapiens, UniProt P07948); conditions: NEW KINOMEscan
kinases (KINOMEscan panel) (Homo sapiens, UniProt P07948), sequence (P07948 whole entry): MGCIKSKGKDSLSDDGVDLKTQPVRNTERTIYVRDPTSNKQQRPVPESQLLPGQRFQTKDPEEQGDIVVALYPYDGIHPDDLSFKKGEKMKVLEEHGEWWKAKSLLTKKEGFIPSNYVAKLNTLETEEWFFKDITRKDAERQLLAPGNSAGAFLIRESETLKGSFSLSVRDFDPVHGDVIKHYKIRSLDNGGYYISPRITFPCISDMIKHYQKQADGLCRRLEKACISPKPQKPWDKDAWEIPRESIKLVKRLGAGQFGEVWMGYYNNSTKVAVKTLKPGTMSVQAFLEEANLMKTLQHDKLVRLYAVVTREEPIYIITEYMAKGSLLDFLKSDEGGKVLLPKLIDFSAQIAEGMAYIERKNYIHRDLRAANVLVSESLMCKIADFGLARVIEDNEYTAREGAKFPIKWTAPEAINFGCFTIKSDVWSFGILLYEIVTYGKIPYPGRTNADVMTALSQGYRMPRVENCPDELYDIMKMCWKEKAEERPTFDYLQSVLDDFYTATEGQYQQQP

[3] = biological target: kinases (KINOMEscan panel) (Homo sapiens, UniProt P07949, V804M); conditions: kinase RET(V804M); NEW KINOMEscan
[4] = biological target: kinases (KINOMEscan panel) (Homo sapiens, UniProt P10721, A829P); conditions: NEW KINOMEscan
[5] = biological target: kinases (KINOMEscan panel) (Homo sapiens, UniProt P42336, E545A); conditions: NEW KINOMEscan
kinases (KINOMEscan panel) (Homo sapiens, UniProt P42336, E545A), sequence (P42336 whole entry E545A): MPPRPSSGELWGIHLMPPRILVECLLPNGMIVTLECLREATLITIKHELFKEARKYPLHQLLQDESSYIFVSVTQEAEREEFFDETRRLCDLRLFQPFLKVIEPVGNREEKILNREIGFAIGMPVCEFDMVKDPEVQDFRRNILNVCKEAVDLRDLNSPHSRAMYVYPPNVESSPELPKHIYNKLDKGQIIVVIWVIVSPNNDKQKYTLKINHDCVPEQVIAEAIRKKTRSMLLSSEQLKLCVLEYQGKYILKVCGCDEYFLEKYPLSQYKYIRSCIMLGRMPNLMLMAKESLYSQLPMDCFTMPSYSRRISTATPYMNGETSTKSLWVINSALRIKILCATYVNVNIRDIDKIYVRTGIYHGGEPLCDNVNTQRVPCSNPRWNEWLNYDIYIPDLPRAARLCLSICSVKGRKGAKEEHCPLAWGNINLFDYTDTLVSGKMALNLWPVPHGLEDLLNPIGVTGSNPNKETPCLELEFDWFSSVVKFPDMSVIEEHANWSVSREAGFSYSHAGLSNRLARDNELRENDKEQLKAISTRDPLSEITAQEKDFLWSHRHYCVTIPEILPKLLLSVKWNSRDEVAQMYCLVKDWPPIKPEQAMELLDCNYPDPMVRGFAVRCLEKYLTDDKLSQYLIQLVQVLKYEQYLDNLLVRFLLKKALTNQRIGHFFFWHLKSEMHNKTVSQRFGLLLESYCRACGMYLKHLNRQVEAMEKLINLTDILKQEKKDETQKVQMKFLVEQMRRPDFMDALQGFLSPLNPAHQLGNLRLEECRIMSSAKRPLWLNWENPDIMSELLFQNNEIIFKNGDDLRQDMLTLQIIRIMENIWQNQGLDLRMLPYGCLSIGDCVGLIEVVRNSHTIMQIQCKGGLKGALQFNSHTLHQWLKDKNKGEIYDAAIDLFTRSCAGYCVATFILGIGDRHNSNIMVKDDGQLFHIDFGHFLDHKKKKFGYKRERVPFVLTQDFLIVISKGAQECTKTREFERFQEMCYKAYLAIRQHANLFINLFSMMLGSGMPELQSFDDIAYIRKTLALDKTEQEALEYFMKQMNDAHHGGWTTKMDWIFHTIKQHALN

[6] = biological target: kinases (KINOMEscan panel) (Homo sapiens, UniProt P49137)
kinases (KINOMEscan panel) (Homo sapiens, UniProt P49137), sequence (P49137 whole entry): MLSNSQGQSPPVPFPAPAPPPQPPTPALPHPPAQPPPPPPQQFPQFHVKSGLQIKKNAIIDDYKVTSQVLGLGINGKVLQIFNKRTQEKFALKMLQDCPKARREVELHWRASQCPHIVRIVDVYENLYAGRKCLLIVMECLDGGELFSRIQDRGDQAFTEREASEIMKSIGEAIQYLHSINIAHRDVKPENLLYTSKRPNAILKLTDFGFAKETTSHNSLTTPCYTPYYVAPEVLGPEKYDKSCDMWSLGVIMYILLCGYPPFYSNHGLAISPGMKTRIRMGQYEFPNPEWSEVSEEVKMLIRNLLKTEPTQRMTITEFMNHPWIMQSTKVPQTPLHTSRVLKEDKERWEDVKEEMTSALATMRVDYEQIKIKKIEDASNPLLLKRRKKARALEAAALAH

[7] = biological target: kinases (KINOMEscan panel) (Homo sapiens, UniProt P49840); conditions: GSK3A; NEW KINOMEscan
kinases (KINOMEscan panel) (Homo sapiens, UniProt P49840), sequence (P49840 whole entry): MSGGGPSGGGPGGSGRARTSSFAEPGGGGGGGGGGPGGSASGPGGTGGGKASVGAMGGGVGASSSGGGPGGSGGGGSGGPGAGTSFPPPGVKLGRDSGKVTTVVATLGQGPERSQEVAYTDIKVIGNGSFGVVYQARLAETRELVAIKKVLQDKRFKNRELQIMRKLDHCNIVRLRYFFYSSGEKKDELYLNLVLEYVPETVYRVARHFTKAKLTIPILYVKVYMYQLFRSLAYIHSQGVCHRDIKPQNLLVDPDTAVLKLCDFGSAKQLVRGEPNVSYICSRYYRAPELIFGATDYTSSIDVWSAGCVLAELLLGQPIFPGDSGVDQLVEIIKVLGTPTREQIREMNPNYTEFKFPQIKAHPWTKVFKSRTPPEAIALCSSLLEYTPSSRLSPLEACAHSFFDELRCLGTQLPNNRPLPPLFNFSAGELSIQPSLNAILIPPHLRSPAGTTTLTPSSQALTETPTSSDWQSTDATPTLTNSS

[8] = biological target: kinases (KINOMEscan panel) (Homo sapiens, UniProt Q00526); conditions: CDK3; NEW KINOMEscan
kinases (KINOMEscan panel) (Homo sapiens, UniProt Q00526), sequence (Q00526 whole entry): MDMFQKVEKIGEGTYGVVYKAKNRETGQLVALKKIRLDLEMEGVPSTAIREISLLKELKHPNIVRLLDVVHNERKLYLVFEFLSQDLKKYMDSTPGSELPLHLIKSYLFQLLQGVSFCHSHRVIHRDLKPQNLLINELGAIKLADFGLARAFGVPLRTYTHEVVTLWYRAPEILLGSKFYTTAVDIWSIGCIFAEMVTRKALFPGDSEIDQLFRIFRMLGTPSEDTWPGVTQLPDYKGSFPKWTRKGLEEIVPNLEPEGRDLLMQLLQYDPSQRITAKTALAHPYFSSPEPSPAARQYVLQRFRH

[9] = biological target: T1, kinases (KINOMEscan panel) (Homo sapiens, UniProt Q13470); conditions: TNK1; NEW KINOMEscan
T1 sequence (Q13470 1-666): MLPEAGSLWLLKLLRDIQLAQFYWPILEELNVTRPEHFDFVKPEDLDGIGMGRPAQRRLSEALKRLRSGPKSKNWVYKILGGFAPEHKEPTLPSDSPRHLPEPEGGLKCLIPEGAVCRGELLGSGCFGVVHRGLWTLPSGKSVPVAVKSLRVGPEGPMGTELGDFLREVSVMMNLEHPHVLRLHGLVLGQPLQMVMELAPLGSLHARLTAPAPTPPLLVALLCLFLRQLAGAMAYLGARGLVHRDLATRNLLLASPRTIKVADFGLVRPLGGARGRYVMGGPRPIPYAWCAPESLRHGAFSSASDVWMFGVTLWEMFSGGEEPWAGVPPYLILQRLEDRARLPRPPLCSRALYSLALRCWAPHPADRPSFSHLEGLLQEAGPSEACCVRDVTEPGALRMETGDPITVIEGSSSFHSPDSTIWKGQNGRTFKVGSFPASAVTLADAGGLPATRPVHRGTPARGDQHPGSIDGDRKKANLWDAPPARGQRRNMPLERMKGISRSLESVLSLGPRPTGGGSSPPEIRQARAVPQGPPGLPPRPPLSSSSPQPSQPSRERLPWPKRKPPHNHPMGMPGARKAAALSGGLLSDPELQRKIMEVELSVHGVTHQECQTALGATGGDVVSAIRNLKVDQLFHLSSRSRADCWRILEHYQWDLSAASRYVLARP

[10] = biological target: kinases (KINOMEscan panel) (Homo sapiens, UniProt Q86V86); conditions: kinase PIM3; NEW KINOMEscan
[11] = biological target: T2, kinases (KINOMEscan panel) (Homo sapiens, UniProt Q86YV6); conditions: kinase MYLK4; NEW KINOMEscan
T2 sequence (Q86YV6 1-388): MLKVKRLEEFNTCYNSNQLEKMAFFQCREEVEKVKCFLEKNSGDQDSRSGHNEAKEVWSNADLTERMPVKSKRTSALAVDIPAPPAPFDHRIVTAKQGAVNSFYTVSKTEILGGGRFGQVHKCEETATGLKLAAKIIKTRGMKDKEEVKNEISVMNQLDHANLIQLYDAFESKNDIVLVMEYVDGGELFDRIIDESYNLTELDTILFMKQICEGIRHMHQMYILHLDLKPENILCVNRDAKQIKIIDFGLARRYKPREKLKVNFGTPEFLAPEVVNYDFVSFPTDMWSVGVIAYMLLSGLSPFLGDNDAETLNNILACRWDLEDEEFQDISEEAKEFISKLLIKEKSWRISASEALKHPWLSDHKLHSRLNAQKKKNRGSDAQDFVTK

[12] = biological target: T3, kinases (KINOMEscan panel) (Homo sapiens, UniProt Q8NFD2); conditions: ANKK1; NEW KINOMEscan
T3 sequence (Q8NFD2 1-765): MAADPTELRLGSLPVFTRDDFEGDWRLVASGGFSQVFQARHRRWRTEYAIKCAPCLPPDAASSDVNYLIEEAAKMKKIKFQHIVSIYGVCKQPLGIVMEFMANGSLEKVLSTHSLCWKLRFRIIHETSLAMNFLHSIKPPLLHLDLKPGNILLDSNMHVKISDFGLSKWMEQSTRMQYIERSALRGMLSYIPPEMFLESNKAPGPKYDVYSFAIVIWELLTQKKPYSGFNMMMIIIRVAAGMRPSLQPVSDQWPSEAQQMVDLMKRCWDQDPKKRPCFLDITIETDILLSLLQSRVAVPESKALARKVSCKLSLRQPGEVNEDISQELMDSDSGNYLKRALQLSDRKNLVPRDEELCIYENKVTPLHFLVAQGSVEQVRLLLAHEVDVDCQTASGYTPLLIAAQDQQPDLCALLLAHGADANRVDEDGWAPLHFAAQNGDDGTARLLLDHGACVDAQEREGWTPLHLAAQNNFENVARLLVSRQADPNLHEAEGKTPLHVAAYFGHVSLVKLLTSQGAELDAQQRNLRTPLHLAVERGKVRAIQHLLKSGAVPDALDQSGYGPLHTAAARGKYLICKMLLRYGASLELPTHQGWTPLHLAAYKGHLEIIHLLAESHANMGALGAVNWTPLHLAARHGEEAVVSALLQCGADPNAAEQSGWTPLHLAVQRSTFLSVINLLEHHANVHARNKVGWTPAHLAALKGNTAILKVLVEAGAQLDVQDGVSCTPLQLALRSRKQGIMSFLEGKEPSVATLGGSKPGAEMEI

[13] = biological target: kinases (KINOMEscan panel) (Plasmodium falciparum, UniProt P62344); conditions: PFCDPK1(P.falciparum); NEW KINOMEscan
kinases (KINOMEscan panel) (Plasmodium falciparum, UniProt P62344), sequence (P62344 whole entry): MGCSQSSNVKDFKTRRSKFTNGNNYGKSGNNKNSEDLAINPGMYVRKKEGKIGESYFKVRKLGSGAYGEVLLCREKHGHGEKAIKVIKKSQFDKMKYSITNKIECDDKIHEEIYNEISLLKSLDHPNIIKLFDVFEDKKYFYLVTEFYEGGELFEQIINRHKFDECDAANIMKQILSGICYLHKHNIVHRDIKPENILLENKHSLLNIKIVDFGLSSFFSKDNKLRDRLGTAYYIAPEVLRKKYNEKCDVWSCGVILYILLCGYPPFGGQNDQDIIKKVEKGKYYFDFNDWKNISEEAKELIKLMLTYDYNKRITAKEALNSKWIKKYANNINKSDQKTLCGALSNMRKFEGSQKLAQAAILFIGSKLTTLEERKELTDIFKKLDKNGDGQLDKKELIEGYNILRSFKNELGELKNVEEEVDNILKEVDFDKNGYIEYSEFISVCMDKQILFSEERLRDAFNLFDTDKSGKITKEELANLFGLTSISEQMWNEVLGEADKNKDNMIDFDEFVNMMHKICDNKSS

kinases (KINOMEscan panel) (Homo sapiens, UniProt P00533), sequence (P00533 25-1210): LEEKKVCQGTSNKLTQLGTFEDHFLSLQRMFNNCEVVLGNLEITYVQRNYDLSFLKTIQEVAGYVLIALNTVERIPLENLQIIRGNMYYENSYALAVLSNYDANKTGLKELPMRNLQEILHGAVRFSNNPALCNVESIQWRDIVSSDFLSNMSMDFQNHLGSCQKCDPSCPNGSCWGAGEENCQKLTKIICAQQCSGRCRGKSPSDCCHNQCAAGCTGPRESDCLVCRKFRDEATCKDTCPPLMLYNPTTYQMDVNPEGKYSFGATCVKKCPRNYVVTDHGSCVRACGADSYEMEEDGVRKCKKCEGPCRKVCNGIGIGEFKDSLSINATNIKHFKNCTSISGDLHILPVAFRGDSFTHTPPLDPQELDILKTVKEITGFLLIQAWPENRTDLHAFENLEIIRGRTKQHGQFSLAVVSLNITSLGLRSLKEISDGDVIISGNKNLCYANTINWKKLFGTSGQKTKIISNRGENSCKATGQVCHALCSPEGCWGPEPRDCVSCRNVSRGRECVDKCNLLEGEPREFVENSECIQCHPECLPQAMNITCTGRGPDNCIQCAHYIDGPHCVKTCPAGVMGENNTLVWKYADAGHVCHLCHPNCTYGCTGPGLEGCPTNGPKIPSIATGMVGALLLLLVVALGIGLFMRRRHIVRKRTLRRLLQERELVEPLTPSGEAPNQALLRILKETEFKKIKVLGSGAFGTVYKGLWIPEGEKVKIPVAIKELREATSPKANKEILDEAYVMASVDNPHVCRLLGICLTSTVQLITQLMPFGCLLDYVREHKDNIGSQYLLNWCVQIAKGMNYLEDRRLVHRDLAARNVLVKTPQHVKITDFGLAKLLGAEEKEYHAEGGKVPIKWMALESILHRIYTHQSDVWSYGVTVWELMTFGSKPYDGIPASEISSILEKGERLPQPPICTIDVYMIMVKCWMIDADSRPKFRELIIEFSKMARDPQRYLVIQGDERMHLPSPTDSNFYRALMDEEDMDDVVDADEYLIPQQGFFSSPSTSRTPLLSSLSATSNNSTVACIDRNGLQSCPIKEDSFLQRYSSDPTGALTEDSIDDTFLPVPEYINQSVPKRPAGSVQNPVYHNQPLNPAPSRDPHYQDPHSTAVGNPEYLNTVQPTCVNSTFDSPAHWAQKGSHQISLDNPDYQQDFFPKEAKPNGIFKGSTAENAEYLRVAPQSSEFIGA

SMILES	KINOMEscan EGFR [1]	KINOMEscan LYN [2]	KINOMEscan RET(V804M) [3]	KINOMEscan KIT(A829P) [4]	KINOMEscan PIK3CA(E545A) [5]	KINOMEscan MAPKAPK2 ([6]; kinase MAPKAPK2, NEW KINOMEscan)	KINOMEscan GSK3A [7]	KINOMEscan CDK3 [8]	KINOMEscan TNK1 [9]	KINOMEscan PIM3 [10]	KINOMEscan MYLK4 [11]	KINOMEscan ANKK1 [12]	KINOMEscan PFCDPK1(P.falciparum) [13]	KINOMEscan MAPKAPK2 [6]
Cc1cccc(-c2nc(Nc3ccc4nn(C)cc4c3)c3ccccc3n2)n1 [NK167]	0	17	0	0	31	0	0	0	0	0	0	0	0	
Cc1cccc(-c2nc(N(C)c3ccc4ncsc4c3)c3ccccc3n2)n1 [NK-161]	1	12	0	19	14		0	0	7	0	0	0	0	0
